Reference: US8946205B2, “1,2,4-triazolo[4,3-a]pyridine derivatives and their use as positive allosteric modulators of mGluR2 receptors” (Janssen Pharmaceuticals, Inc., priority 2009, dated 2015)

Assays:
human mGluR2 receptor = target: T1, human mGluR2 receptor (Homo sapiens, UniProt Q14416); experiment: [35S]GTPγS binding assay (PAM assay, membranes from CHO cells transfected with the human mGluR2 receptor); assay type: biochemical; details: in presence of glutamate at EC20; pEC50 = -log EC50 (mol/L); read-out: GTPγS-hR2 PAM pEC50 (converted)
T1 construct: expressed in transfected cells; host or cells: CHO cells (membranes)
T1 sequence (Q14416 19-872): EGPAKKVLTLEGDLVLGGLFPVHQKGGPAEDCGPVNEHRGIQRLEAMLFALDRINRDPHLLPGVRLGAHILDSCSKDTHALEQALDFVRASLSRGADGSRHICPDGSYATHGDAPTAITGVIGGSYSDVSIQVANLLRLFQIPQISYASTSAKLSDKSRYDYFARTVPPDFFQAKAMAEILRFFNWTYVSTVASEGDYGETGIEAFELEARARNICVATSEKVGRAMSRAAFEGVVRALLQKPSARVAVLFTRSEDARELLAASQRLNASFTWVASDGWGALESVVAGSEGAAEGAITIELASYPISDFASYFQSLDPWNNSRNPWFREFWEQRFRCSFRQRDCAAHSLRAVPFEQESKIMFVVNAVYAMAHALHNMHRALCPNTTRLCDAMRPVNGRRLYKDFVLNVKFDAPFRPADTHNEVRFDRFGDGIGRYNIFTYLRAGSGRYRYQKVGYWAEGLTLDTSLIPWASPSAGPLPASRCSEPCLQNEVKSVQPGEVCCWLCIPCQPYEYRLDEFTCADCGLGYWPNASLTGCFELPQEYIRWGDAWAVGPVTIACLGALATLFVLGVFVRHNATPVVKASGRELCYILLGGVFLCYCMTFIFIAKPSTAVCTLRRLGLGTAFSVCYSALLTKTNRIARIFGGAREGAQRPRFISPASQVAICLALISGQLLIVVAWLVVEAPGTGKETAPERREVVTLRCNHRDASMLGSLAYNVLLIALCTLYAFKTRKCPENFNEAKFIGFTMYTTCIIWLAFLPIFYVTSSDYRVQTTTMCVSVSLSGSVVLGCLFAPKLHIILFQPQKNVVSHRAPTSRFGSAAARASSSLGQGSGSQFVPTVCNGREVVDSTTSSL
Procedure: The [^35S]GTPγS binding assay is a functional membrane-based assay used to study G-protein coupled receptor (GPCR) function whereby incorporation of a non-hydrolysable form of GTP, [^35S]GTPγS (guanosine 5′-triphosphate, labelled with […] ^35S), is measured. The G-protein α subunit catalyzes the exchange of guanosine 5′-diphosphate (GDP) by guanosine triphosphate (GTP) and on activation of the GPCR by an agonist, [^35S]GTPγS, becomes incorporated and cannot be cleaved to continue the exchange cycle (Harper (1998) Current Protocols in Pharmacology 2.6.1-10, John Wiley & Sons, Inc.). […] Here we describe the use of the [^35S]GTPγS binding assay using membranes from cells transfected with the human mGluR2 receptor and adapted from Schaffhauser et al. ((2003) Molecular Pharmacology 4:798-810) for the detection of the positive allosteric modulation (PAM) properties of the compounds of this invention.
CHO-cells were cultured to pre-confluence and stimulated with 5 mM butyrate for 24 h, prior to washing in PBS, and then collected by scraping in homogenisation buffer (50 mM Tris-HCl buffer, pH 7.4, 4° C.). Cell lysates were homogenized briefly using an ultra-turrax homogenizer. The homogenate was centrifuged at 16,000 RPM (Sorvall RC-5C plus rotor SS-34) for 10 minutes and the supernatant discarded. The pellet was resuspended in 5 mM Tris-HCl, pH 7.4 and centrifuged again (18,000 RPM, 20 min, 4° C.). The final pellet was resuspended in 50 mM Tris-HCl, pH 7.4 and stored at −80° C. in appropriate aliquots before use. Protein concentration was determined by the Bradford method (Bio-Rad, USA) with bovine serum albumin as standard.
Measurement of mGluR2 positive allosteric modulatory activity of test compounds was performed as follows. Test compounds and glutamate were diluted in assay buffer containing 10 mM HEPES acid, 10 mM HEPES salt, pH 7.4, 100 mM NaCl, 3 mM MgCl2 and 10 μM GDP. Human mGlu2 receptor-containing membranes were thawed on ice and diluted in assay buffer supplemented with 14 μg/ml saponin. Membranes were pre-incubated with compound alone or together with a predefined (˜EC20) concentration of glutamate (PAM assay) for 30 min at 30° C. After addition of [^35S]GTPγS (f.c. 0.1 nM) microplates were shaken briefly and further incubated to allow [^35S]GTPγS incorporation on activation (30 minutes, 30° C.). Final assay mixtures contained 7 μg of membrane protein in 10 mM HEPES acid, 10 mM HEPES salt, pH 7.4, 100 mM NaCl, 3 mM MgCl2,10 μM GDP and 10 μg/ml saponin. Total reaction volume was 200 μl. Reactions were terminated by rapid filtration through Unifilter-96 GF/B filter plates (Packard, Meriden, Conn.) using a 96-well Packard filtermate harvester. Filters were washed 6 times with ice-cold 10 mM NaH2PO4/10 mM Na2HPO4, pH 7.4. Filters were then air-dried, and 40 μl of liquid scintillation cocktail (Microscint-O) was added to each well. Membrane-bound radioactivity was counted in a Microplate Scintillation and Luminescence Counter from Packard.
The concentration-response curves of representative compounds of the present invention—obtained in the presence of EC20 of mGluR2 agonist glutamate to determine positive allosteric modulation (PAM)—were generated using the Lexis software interface (developed at J&J). Data were calculated as % of the control glutamate response, defined as the maximal response that is generated upon addition of glutamate alone. Sigmoid concentration-response curves plotting these percentages versus the log concentration of the test compound were analyzed using non-linear regression analysis. The concentration producing half-maximal effect is then calculated as EC50. The pEC50 values below are calculated as the −log EC50 (wherein EC50 is expressed in mol/L). […]

Structure (SMILES): FC(F)(F)Cc1nnc2c(Cl)c(-c3ccc4c(ccn4-c4ccccn4)c3)ccn12 [Compound 1]
- EC50 (human mGluR2 receptor): 43.7 nM
- melting point: > 300 °C

Structure (SMILES): Clc1c(-c2ccc3c(ccn3C3CCOCC3)c2)ccn2c(CC3CC3)nnc12 [Compound 2]
- EC50 (human mGluR2 receptor): 64.6 nM
- melting point: > 300 °C

Structure (SMILES): FC(F)(F)c1c(-c2ccc3c(ccn3C3CCOCC3)c2)ccn2c(CC3CC3)nnc12 [Compound 3]
- EC50 (human mGluR2 receptor): 28.2 nM
- melting point: 193.1 °C

Structure (SMILES): FC(F)(F)Cc1nnc2c(Cl)c(-c3ccc4c(ccn4-c4ncccn4)c3)ccn12 [Compound 6]
- EC50 (human mGluR2 receptor): 33.9 nM

Structure (SMILES): FC(F)(F)c1c(-c2ccc3c(ccn3-c3ncccn3)c2)ccn2c(CC3CC3)nnc12 [Compound 7]
- EC50 (human mGluR2 receptor): 11.5 nM

Structure (SMILES): Clc1cc(-c2ccn3c(CC4CC4)nnc3c2Cl)cc2cc[nH]c12 [Compound 8]
- EC50 (human mGluR2 receptor): 25.1 nM
- melting point: 233.5 °C

Structure (SMILES): CC(C)(O)Cn1ccc2cc(-c3ccn4c(CC5CC5)nnc4c3Cl)ccc21 [Compound 9]
- EC50 (human mGluR2 receptor): 158 nM

Structure (SMILES): O[C@H]1CC[C@H](n2ccc3cc(-c4ccn5c(CC6CC6)nnc5c4Cl)ccc32)CC1 [Compound 10]
- EC50 (human mGluR2 receptor): 52.5 nM
- melting point: > 300 °C

Structure (SMILES): Clc1c(-c2ccc3nn(Cc4cccnc4)cc3c2)ccn2c(CC3CC3)nnc12 [Compound 11]
- EC50 (human mGluR2 receptor): 871 nM

Structure (SMILES): Clc1c(-c2cccc3[nH]ccc23)ccn2c(CC3CC3)nnc12 [Compound 13]
- EC50 (human mGluR2 receptor): 813 nM
- melting point: > 300 °C

Structure (SMILES): FC(F)(F)c1c(-c2cc(Cl)c3[nH]ccc3c2)ccn2c(CC3CC3)nnc12 [Compound 14]
- EC50 (human mGluR2 receptor): 11 nM
- melting point: > 300 °C

Structure (SMILES): Clc1c(-c2ccc3c(ccn3-c3ncccn3)c2)ccn2c(CC3CC3)nnc12 [Compound 15]
- EC50 (human mGluR2 receptor): 53.7 nM
- melting point: > 300 °C

Structure (SMILES): Clc1c(-c2ccc3c(ccn3-c3ccccn3)c2)ccn2c(CC3CC3)nnc12 [Compound 16]
- EC50 (human mGluR2 receptor): 67.6 nM
- melting point: 197.1 °C

Structure (SMILES): CCOCc1nnc2c(Cl)c(-c3ccc4c(ccn4-c4ccccn4)c3)ccn12 [Compound 18]
- EC50 (human mGluR2 receptor): 288 nM
- melting point: 235 °C

Structure (SMILES): CCOCc1nnc2c(Cl)c(-c3ccc4c(ccn4-c4ncccn4)c3)ccn12 [Compound 19]
- EC50 (human mGluR2 receptor): 126 nM

Structure (SMILES): Clc1c(-c2ccc3[nH]ccc3c2)ccn2c(CC3CC3)nnc12 [Compound 20]
- EC50 (human mGluR2 receptor): 251 nM
- melting point: > 300 °C

Structure (SMILES): Cc1ccc(-n2ccc3cc(-c4ccn5c(CC6CC6)nnc5c4Cl)ccc32)cn1 [Compound 21, 8-Chloro-3-cyclopropylmethyl-7-[1-(2-methylpyridin-5-yl)-1H-indol-5-yl]-[1,2,4]triazolo[4,3-a]pyridine]
- EC50 (human mGluR2 receptor): 23.4 nM
- melting point: 137.2 °C

Structure (SMILES): Clc1c(-c2cnc3c(ccn3CC3CC3)c2)ccn2c(CC3CC3)nnc12 [Compound 22, 8-Chloro-3-cyclopropylmethyl-7-(1-cyclopropylmethyl-1H-pyrrolo[2,3-b]pyridin-5-yl)-[1,2,4]triazolo[4,3-a]pyridine]
- EC50 (human mGluR2 receptor): 324 nM
- melting point: 184.7 °C

Structure (SMILES): CCOCc1nnc2c(Cl)c(-c3cc(Cl)c4[nH]ccc4c3)ccn12 [Compound 23]
- EC50 (human mGluR2 receptor): 95.5 nM

Structure (SMILES): FC(F)(F)c1c(-c2cnc3[nH]ccc3c2)ccn2c(CC3CC3)nnc12 [Compound 24]
- EC50 (human mGluR2 receptor): 1410 nM
- melting point: > 300 °C

Structure (SMILES): FC(F)(F)c1c(-c2cnc3c(ccn3CC3CC3)c2)ccn2c(CC3CC3)nnc12 [Compound 25]
- EC50 (human mGluR2 receptor): 182 nM
- melting point: > 300 °C

Structure (SMILES): CCOCc1nnc2c(Cl)c(-c3ccc4c(ccn4-c4cccnc4)c3)ccn12 [Compound 26]
- EC50 (human mGluR2 receptor): 182 nM
- melting point: 233.2 °C

Structure (SMILES): CCOCc1nnc2c(Cl)c(-c3ccc4c(ccn4-c4ccc(C)nc4)c3)ccn12 [Compound 27]
- EC50 (human mGluR2 receptor): 56.2 nM
- melting point: 188.9 °C

Structure (SMILES): Fc1cc(-c2ccn3c(CC4CC4)nnc3c2Cl)cc2cc[nH]c12 [Compound 28]
- EC50 (human mGluR2 receptor): 117 nM
- melting point: 235.5 °C

Structure (SMILES): CCOCc1nnc2c(Cl)c(-c3ccc4[nH]ccc4c3)ccn12 [Compound 29]
- EC50 (human mGluR2 receptor): 1260 nM
- melting point: 176.4 °C

Structure (SMILES): CCOCc1nnc2c(C(F)(F)F)c(-c3ccc4c(ccn4-c4cccnc4)c3)ccn12 [Compound 30]
- EC50 (human mGluR2 receptor): 33.9 nM
- melting point: 182.4 °C

Structure (SMILES): CCOCc1nnc2c(C(F)(F)F)c(-c3ccc4c(ccn4-c4ccc(C)nc4)c3)ccn12 [Compound 32]
- EC50 (human mGluR2 receptor): 17.4 nM
- melting point: 163.1 °C

Structure (SMILES): CCOCc1nnc2c(C(F)(F)F)c(-c3ccc4[nH]ccc4c3)ccn12 [Compound 33]
- melting point: 200.1 °C

Structure (SMILES): FC(F)(F)c1c(-c2ccc3c(ccn3-c3cccnc3)c2)ccn2c(CC3CC3)nnc12 [Compound 34]
- melting point: 144.3 °C

Structure (SMILES): Cc1ccc(-n2ccc3cc(-c4ccn5c(CC6CC6)nnc5c4C)ccc32)cn1 [Compound 35, 8-Methyl-3-cyclopropylmethyl-7-[1-(2-methylpyridin-5-yl)-1H-indol-5-yl]-[1,2,4]triazolo[4,3-a]pyridine]
- EC50 (human mGluR2 receptor): 70.8 nM
- melting point: 263.3 °C

Structure (SMILES): Cc1ccc(-n2ccc3cc(-c4ccn5c(CC6CC6)nnc5c4C(F)(F)F)ccc32)cn1 [Compound 36]
- EC50 (human mGluR2 receptor): 9.33 nM
- melting point: 204 °C

Structure (SMILES): Cc1ccc(-n2ccc3cc(-c4ccn5c(CC6CC6)nnc5c4C4CC4)ccc32)cn1 [Compound 37]
- EC50 (human mGluR2 receptor): 39.8 nM
- melting point: > 300 °C

Structure (SMILES): Cc1ccc(-n2ccc3cc(-c4ccn5c(CC6CC6)nnc5c4C(F)(F)F)cc(F)c32)cn1 [Compound 38]
- EC50 (human mGluR2 receptor): 17 nM
- melting point: > 300 °C

Structure (SMILES): Clc1c(-c2cnc3c(ccn3CC3CCC3)c2)ccn2c(CC3CC3)nnc12 [Compound 39]
- EC50 (human mGluR2 receptor): 126 nM
- melting point: > 300 °C

Structure (SMILES): Cc1c(-c2cnc3c(ccn3CC3CC3)c2)ccn2c(CC3CC3)nnc12 [Compound 40]
- EC50 (human mGluR2 receptor): 407 nM
- melting point: > 300 °C

Structure (SMILES): Clc1c(-c2cnc3c(ccn3-c3ccccn3)c2)ccn2c(CC3CC3)nnc12 [Compound 41]
- EC50 (human mGluR2 receptor): 603 nM
- melting point: > 300 °C

Structure (SMILES): Fc1cnccc1-n1ccc2cc(-c3ccn4c(CC5CC5)nnc4c3Cl)ccc21 [Compound 42, 8-Chloro-3-cyclopropylmethyl-7-[1-(3-fluoro-pyridin-4-yl)-1H-indol-5-yl]-[1,2,4]triazolo[4,3-a]pyridine]
- EC50 (human mGluR2 receptor): 28.8 nM
- melting point: > 300 °C

Structure (SMILES): FC(F)(F)c1c(-c2ccc3c(ccn3-c3ccncc3)c2)ccn2c(CC3CC3)nnc12 [Compound 43]
- EC50 (human mGluR2 receptor): 16.6 nM
- melting point: > 300 °C

Structure (SMILES): Clc1c(-c2ccc3c(ccn3-c3ccncc3)c2)ccn2c(CC3CC3)nnc12 [Compound 44]
- EC50 (human mGluR2 receptor): 66.1 nM
- melting point: > 300 °C

Structure (SMILES): Cc1cc(-n2ccc3cc(-c4ccn5c(CC6CC6)nnc5c4C(F)(F)F)ccc32)ccn1 [Compound 46]
- EC50 (human mGluR2 receptor): 8.13 nM
- melting point: > 300 °C

Structure (SMILES): Cc1cc(-n2ccc3cc(-c4ccn5c(CC6CC6)nnc5c4Cl)ccc32)ccn1 [Compound 47]
- EC50 (human mGluR2 receptor): 39.8 nM
- melting point: > 300 °C

Structure (SMILES): Fc1cc(-c2ccn3c(CC4CC4)nnc3c2Cl)cc2ccn(-c3cccnc3)c12 [Compound 48]
- EC50 (human mGluR2 receptor): 46.8 nM
- melting point: 195.6 °C

Structure (SMILES): CCOCc1nnc2c(C)c(-c3ccc4c(ccn4-c4ccc(C)nc4)c3)ccn12 [Compound 49]
- EC50 (human mGluR2 receptor): 174 nM
- melting point: 108.5 °C
